“Also recorded” adds a separate entry of the source.
Tests used:
[1] = cynomolgus monkey, in vivo
[2] = system: 28S rRNA, 18S rRNA, thioredoxin mRNA, β-actin mRNA, GAPDH mRNA, thioredoxin reductase mRNA, ribosomal protein S9 mRNA, RNase MRP RNA, RNase P RNA and R2 mRNA; assay: Northern blot of other cellular RNAs in A2058 human melanoma cells (specificity); type: cell-based; conditions: 0.2 μM, 4 hr with Lipofectin
Method: (§1) A2058 human melanoma cells, grown to subconfluency (70-80%), were treated with 0.2 μM of phosphorothioate antisense ODNs for 4 hr in the presence of cationic lipid (Lipofectin reagent, final concentration, 5 μg/ml, GIBCO BRL) and Opti-MEM (GIBCO BRL). Cells were washed once with PBS and incubated for 16 hr in α-MEM medium (GIBCO BRL) containing 10% FBS. Total RNA was prepared in TRIzol reagent (GIBCO BRL) and northern blot analysis was performed as previously described (Hurta and Wright, J. Cell. Biochem. 57: 543-56, 1995) with some modifications. RNA prepared from cells treated with lipofectin alone (Control), SEQ ID NO:1 and scrambled control analogue (SEQ ID NO:1 Scr) were subjected to electrophoresis through 1% formaldehyde agarose gels followed by transfer to nylon membrane. The blots were hybridized with ^32P-labeled probes that detect R1 mRNA, 28S rRNA, 18S rRNA, thioredoxin mRNA, […], GAPDH mRNA, thioredoxin reductase mRNA, ribosomal protein S9 mRNA, RNase MRP RNA, RNase P RNA and R2 mRNA.

R1 mRNA = assay: Northern blot of R1 mRNA in A2058 human melanoma cells; type: cell-based; conditions: 0.2 μM, 4 hr with Lipofectin
Method: as §1

[3] = Tissue distribution after continuous infusion in rats; type: in vivo; conditions: rat
[4] = rat
Method: Ten rats/sex/group were administered SEQ ID NO:1 at doses of 0 (control), 2, 10, or 50 mg/kg/day. Animals in the control group received the vehicle article, PBS. […] An additional 5 rats/group were included in the control and high dose group as recovery animals, and were allowed a 14-day observation period following the treatment period. Parameters assessed during the study include mortality, clinical signs, body weights, food consumption, opthalmoscopic examination, clinical pathology assessment (hematology, coagulation, clinical chemistry, and urinalysis). Terminal procedures included a complete necropsy of each animal, and histopathologic evaluation of selected tissues for animals in the control and high dose groups. For toxicokinetic evaluations, an additional 8 rats/sex were included in the high dose groups. Serial and terminal blood samples were withdrawn from satellite animals at selected time points during infusion and after the end of infusion.

R1 protein = assay: Western blot of R1 protein in MDA-MB-231 cells; type: cell-based, human; conditions: SEQ ID NO:1 0.025-0.2 μM, controls 0.2 μM
Method: MDA-MB-231 human breast adenocarcinoma cells were treated with increasing concentrations (0.025-0.2 μM) of SEQ ID NO:1, 0.2 μM of a scrambled control analogue of SEQ ID NO:1 (SEQ ID NO:1 Scr) or a mismatched control analogue of SEQ ID NO:1 (SEQ ID NO:1 Mis) that contains four base changes. Cells were then washed and fresh media were added. Cells were harvested 8-18 hours later for protein extractions. Aliquots of cell extracts were heated at 100° C. for 5 minutes and then analyzed on sodium dodecyl sulfate-polyacrylamide gels (Choy et al., 1988). Proteins were then transferred to membranes. Membranes were blocked and then incubated with anti-R1 antibody for 1 hour at room temperature. Membranes were washed three times in cold TBS-Tween buffer followed by incubation for 30 minutes to 1 hour at room temperature in the presence of a second antibody (goat anti-rabbit immunoglobulin linked with horseradish peroxidase). Blots were washed and bound antibodies were detected by development of the […] reaction (Fan et al., 1996).

[5] = system: MDA-CDDP-S4 human in vivo-selected Cisplatin-resistant breast adenocarcinoma cells; assay: Cisplatin-resistant breast adenocarcinoma MDA-CDDP-S4 growth in SCID mice
Method: MDA-CDDP-S4 human in vivo-selected Cisplatin-resistant breast adenocarcinoma cells MDA231/CDDPs4) (4×10^6 cells in 100 μl of PBS) were injected into the fat pad (inside of right leg) of 6-7 weeks old female SCID mice. After the size of tumor reached an approximate volume of 100 mm^3, 7-9 days post tumor cell injection, SEQ ID NO:1 was administered by bolus infusion into the tail vein every other day at 10 mg/kg. Control animals received saline alone for the same period. Antitumor effect of SEQ ID NO:1 was further compared to that of Cisplatin or Taxol alone (FIG. 14A) and in combination as indicated in the FIGS. 14B, 14C and 14D. Cisplatin was administered intravenously once a week for three weeks at a dose of 4 mg/kg. Taxol was administered intravenously once a week for three weeks at a dose of 10 mg/kg. Antitumor activities were estimated by the inhibition of tumor volume, which was measured with caliper and each point represents mean tumor volume calculated from 10 animals per experimental group (FIG. 14C). At the end of the study animals were sacrificed, tumor weights taken and mean tumor weights are indicated. […] As expected, treatment with Cisplatin during the same period was ineffective against Cisplatin-resistant tumor.

[6] = cynomolgus monkey, in vivo; remark: listed apart in the source

5′-CTCTAGCGTCTTAAAGCCGA-3′ (CTCTAGCGTCTTAAAGCCGA; chemistry not given here) [SEQ ID NO:1]
Cmax and AUC estimates versus dose [1]: proportional with the administered dose
mean Cl, high dose group compared to low dose group [1]: slightly increased mean Cl value
mean elimination t1/2, high dose group compared to low dose group [1]: significantly larger mean elimination t1/2
sex differences in pharmacokinetics [1]: no clear observed sex differences
expression of other cellular RNAs [2]: significant decrease in R1 mRNA but not other RNAs; also recorded: No effects were observed
R1 mRNA expression (R1 mRNA): significant decrease; also recorded: significantly decrease expression of R1mRNA
levels in the brain [3]: very low or below the limits of detection; also recorded: undetectable
tissue concentrations, rank order [3]: kidney>liver>spleen>lymph node (monkey)>lung (monkey)>heart; also recorded: highest in the kidney followed by the liver, spleen and heart
sex difference in plasma concentrations during infusion [4]: no apparent differences in the levels between males and females
mean Cmax ([4]; in vivo): 40.4 µg/mL
median time at which Cmax occurred ([4]; in vivo): 96 h
time to steady state of continuous infusion ([4]; 50 (40) mg/kg/day continuous infusion): approximately 24 h
elimination t1/2 ([4]; after 14-day continuous infusion, high dose): 8.6 h
steady state level (Css) in plasma ([4]; continuous i.v. infusion 50 mg/kg/day (reduced to 40 mg/kg/day), 14 days): 34.8 µg/mL
R1 protein expression (R1 protein): specifically decreases R1 protein expression in a dose-dependent manner; also recorded: decreased R1 protein expression in a dose-dependent manner
tumor weight / tumor growth ([5]; SCID mice, fat pad, SEQ ID NO:1 10 mg/kg every other day, Cisplatin 4 mg/kg, Taxol 10 mg/kg i.v. weekly for three weeks): significant reduction of tumor weight
delay in tumor growth compared with Taxol ([5]; Taxol 10 mg/kg weekly as positive control): superior to the inhibitory effects observed with Taxol
APTT values compared to control [6]: significantly longer
WBC counts [6]: marked increase
appetite [6]: significant decrease in appetite noted in the majority of high dose males
clinical signs [6]: Treatment-related reversible clinical signs were limited to a few high dose animals
lymphoid atrophy [6]: minimal to moderate lymphoid atrophy
ophthalmoscopy [6]: Bilateral retinopathy was noted in one high dose male
organ weights [6]: slight increase in relative and absolute kidney weights
red blood cell, hematocrit, and hemoglobin values [6]: slight to moderate reductions
summary of effects ([6]; 50 mg/kg/day): reversible signs of weakness, decreases in body weight and appetite, prolongation of APTT, anemia, thrombocytopenia, and monocytosis

Source: patent US20070274947A1, “Antisense Oligonucleotides Directed to Ribonucleotide Reductase R1 and Uses Thereof in the Treatment of Cancer” (priority 2003, published 2007)
